Our source for the EC50 and Ki values is US8252793B2, “Bradykinin receptor agonists and uses thereof to treat ocular hypertension and glaucoma” (Alcon Research, Ltd., priority 2010, dated 2012).

Each structure is given as a SMILES string. Where only a bound is given, the exact number is not on record here.

The subject of test [1] is primary human ciliary muscle cells (h-CM). Nature of the test: Total prostaglandin (PG) release from primary h-CM cells (EIA). The following applies: Homo sapiens, 1 h, 1 hour at 37° C., class symbols (in μM). Format: cell-based. The gist of the method: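 Confluent primary h-CM cells, serum-starved (0.8% FBS) 24 h, were exposed to a 9-point concentration series (0.1 nM-10 μM) of bradykinin or BK agonist for 1 hour at 37° C. Total PG released was then quantified by EIA.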

The target of test [2] is T1, recombinant human bradykinin B2 receptor (Homo sapiens, UniProt P30411).
T1 construct: expressed in transfected cells; host or cells: Chinese hamster ovary (CHO) cells, membrane homogenates
T1 sequence (P30411 1-391): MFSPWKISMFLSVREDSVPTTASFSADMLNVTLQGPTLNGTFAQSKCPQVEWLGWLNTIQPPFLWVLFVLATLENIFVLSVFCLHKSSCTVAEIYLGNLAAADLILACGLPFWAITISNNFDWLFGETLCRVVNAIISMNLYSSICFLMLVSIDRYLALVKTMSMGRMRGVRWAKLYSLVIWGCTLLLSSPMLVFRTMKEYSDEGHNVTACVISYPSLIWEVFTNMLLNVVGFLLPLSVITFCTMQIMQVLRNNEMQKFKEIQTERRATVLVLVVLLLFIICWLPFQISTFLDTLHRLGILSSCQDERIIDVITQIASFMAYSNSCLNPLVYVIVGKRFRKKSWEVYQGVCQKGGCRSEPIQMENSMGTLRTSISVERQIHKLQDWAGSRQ
Nature of the test: [3H]-BK competition radioligand binding to human cloned B2 receptor (CHO cell membranes). The following applies: 0.2 nM [3H]-bradykinin, CHO membranes, 60 min 23° C.; mean ± SEM or single value; Ki from IC50 by Cheng-Prusoff; read-out: [3H]-BK Binding to Human Cloned B2 Receptor (Ki).

The target in test [3] is T2, BK receptors in human ciliary muscle cells (h-CM) (Homo sapiens, UniProt P30411).
T2 construct: h-CM cells expressing BK receptors were seeded; endogenous in cells; host or cells: human ciliary muscle (h-CM) cells
T2 sequence (P30411 1-391): T1 sequence (P30411 1-391)
Nature of the test: Functional assay measuring [Ca2+]i mobilization (FLIPR) in h-CM cells. Format: cell-based. The following applies: class symbols (in μM), read-out: CaM (EC50). In a few lines:
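Human ciliary muscle cells loaded 1 h at 23 °C with FLIPR calcium dye in HBSS, 20 mM HEPES, 2.5 mM probenecid, pH 7.4. EC50 by 4-parameter fit.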

As usually defined, the EC50 is the concentration needed to bring the measured effect to its halfway point. As a reminder, the Ki is a measure of affinity in units of concentration, obtained from inhibition or displacement. As for `COc1nc2c(OCc3c(Cl)ccc(N(C)C(=O)CNC(=O)[C@H]4CCN(C(=O)OC(C)(C)C)C4)c3Cl)cccc2n1Cc1ccccn1` [Compound 34, (S)-tert-butyl 3-(2-((2,4-dichloro-3-((2-methoxy-1-(pyridin-2-ylmethyl)-1H-benzo[d]imidazol-4-yloxy)methyl)phenyl)(methyl)amino)-2-oxoethylcarbamoyl)pyrrolidine-1-carboxylate], the 50% effective concentration (EC50) in test [1] and in test [3] was below 0.1 µM each time. The inhibitory constant (Ki) in test [2] is 77 nM.

`CNC(=O)C1CNCC(CC(=O)NCC(=O)N(C)c2ccc(Cl)c(COc3cccc4c3nc(OC)n4Cc3ccccn3)c2Cl)C1` (stereo not drawn) [Compound 81]: the EC50 was above 1 µM in test [1] and below 0.1 µM in test [3]. In addition, in test [2], the Ki was 108 nM.

As to `CNC(=O)c1ccc(OCC(=O)NCC(=O)N(C)c2ccc(Cl)c(COc3cccc4c3nc(OC)n4Cc3ccccn3)c2Cl)cc1` [Compound 68], the EC50 is 0.1 to 1 µM in test [1] and below 0.1 µM in test [3]. Besides, the Ki in test [2] came to 59.5 nM.

In the case of `COc1nc2c(OCc3c(Cl)ccc(N(C)C(=O)CNC(=O)CCC4CN=C(N[N+](=O)[O-])NC4)c3Cl)cccc2n1Cc1ccccn1` (stereo not drawn) [Compound 76], the EC50 in test [1] was above 1 µM; in test [3], below 0.1 µM. Besides, the Ki in test [2] turned out to be 237 nM.

As to `CNC(=O)c1ccc(CCC(=O)NCC(=O)N(C)c2ccc(Cl)c(COc3cccc4c3nc(OC)n4Cc3nccn3C)c2Cl)cc1` [Compound 82], the EC50 was above 1 µM in test [1] and below 0.1 µM in test [3]. Moreover, the Ki in test [2] came to 205 nM.

As for `CNC(=O)c1ccc(CCC(=O)NCC(=O)N(C)c2ccc(Cl)c(COc3cccc4c3nc(OC)n4Cc3ccccn3)c2Cl)cc1` [Compound 33, 4-(3-((2-((2,4-dichloro-3-(((2-methoxy-1-(pyridin-2-ylmethyl)-1H-benzo[d]imidazol-4-yl)oxy)methyl)phenyl)(methyl)amino)-2-oxoethyl)amino)-3-oxopropyl)-N-methylbenzamide], the EC50 in test [1] and in test [3] was below 0.1 µM throughout. The Ki in test [2] came to 7 ± 1 nM.

In the case of `CNC(=O)c1ccc(CCC(=O)NCC(=O)N(C)c2ccc(C)c(COc3cccc4c3nc(OC)n4Cc3ccccn3)c2C)cc1` [Compound 56, 4-(3-((2-((3-(((2-methoxy-1-(pyridin-2-ylmethyl)-1H-benzo[d]imidazol-4-yl)oxy)methyl)-2,4-dimethylphenyl)(methyl)amino)-2-oxoethyl)amino)-3-oxopropyl)-N-methylbenzamide], the EC50 in test [1] and in test [3] was below 0.1 µM throughout. In addition, the Ki in test [2] stood at 42 nM.

Take `CNC(=O)[C@H]1CC[C@H](CCC(=O)NCC(=O)N(C)c2ccc(Cl)c(COc3cccc4c3nc(OC)n4Cc3ccccn3)c2Cl)CN1` [Compound 38, (2R,5R)-5-(3-((2-((2,4-dichloro-3-(((2-methoxy-1-(pyridin-2-ylmethyl)-1H-benzo[d]imidazol-4-yl)oxy)methyl)phenyl)(methyl)amino)-2-oxoethyl)amino)-3-oxopropyl)-N-methylpiperidine-2-carboxamide]: the EC50 in test [1] and in test [3] was below 0.1 µM each time. Besides, in test [2], the Ki was 332 nM.

With `CNCc1ccc(CCC(=O)NCC(=O)N(C)c2ccc(Cl)c(COc3cccc4c3nc(OC)n4Cc3ccccn3)c2Cl)cc1` [Compound 83], the EC50 in test [1] was above 1 µM; in test [3], below 0.1 µM. The Ki in test [2] was found to be 329 nM.

In the case of `CCc1nc2c(OCc3c(Cl)ccc(N(C)C(=O)CNC(=O)CCc4ccc(NC(C)=O)nc4)c3Cl)cccn2c1C(O)c1ccccn1` (stereo not drawn) [Compound 57], the EC50 in test [1] was above 1 µM; in test [3] it was 0.1 to 1 µM. For the same compound, the Ki in test [2] turned out to be 852 nM.

Take `CNC(=O)N1CCC(N2CCC(C(=O)NCC(=O)N(C)c3ccc(Cl)c(COc4cccc5c4nc(OC)n5Cc4ccccn4)c3Cl)C2)C1` (stereo not drawn) [Compound 24, N3-(2-((2,4-dichloro-3-((2-methoxy-1-(pyridin-2-ylmethyl)-1H-benzo[d]imidazol-4-yloxy)methyl)phenyl)(methyl)amino)-2-oxoethyl)-N1′-methyl-1,3′-bipyrrolidine-1′,3-dicarboxamide]: the concentration giving a half-maximal response (EC50) in test [1] is 0.1 to 1 µM; in test [3] it was below 0.1 µM. The Ki in test [2] was determined as 171 ± 97 nM.

For the compound `CCc1nc2c(OCc3c(Cl)ccc(N(C)C(=O)CNC(=O)CCN4CCN(C(=O)NC)CC4)c3Cl)cccc2n1Cc1ccccn1` [Compound 19, 4-(3-((2-((2,4-dichloro-3-(((2-ethyl-1-(pyridin-2-ylmethyl)-1H-benzo[d]imidazol-4-yl)oxy)methyl)phenyl)(methyl)amino)-2-oxoethyl)amino)-3-oxopropyl)-N-methylpiperazine-1-carboxamide], the EC50 in test [1] was above 1 µM; in test [3] it was below 0.1 µM. For the same compound, in test [2], the Ki worked out at 262 ± 11 nM.

Consider `COc1nc2c(OCc3c(Cl)ccc(N(C)C(=O)CNC(=O)CCc4ccc(NC(=O)CN)nc4)c3Cl)cccc2n1Cc1ccccn1` [Compound 74, 3-(6-(2-aminoacetamido)pyridin-3-yl)-N-(2-((2,4-dichloro-3-(((2-methoxy-1-(pyridin-2-ylmethyl)-1H-benzo[d]imidazol-4-yl)oxy)methyl)phenyl)(methyl)amino)-2-oxoethyl)propanamide], for which the EC50 is 0.1 to 1 µM in test [1] and below 0.1 µM in test [3]. The Ki in test [2] stood at 384 nM.

For the compound `COc1nc2c(OCc3c(Cl)ccc(N(C)C(=O)CNC(=O)CCc4ccc(C(=O)NCCO)cc4)c3Cl)cccc2n1Cc1ccccn1` [Compound 65], the EC50 in test [1] and in test [3] was below 0.1 µM in each case. For the same compound, the Ki in test [2] was found to be 98.4 nM.
